For series [1], the system named is human monocytes. The series can be described thus: Monocyte/RPE co-culture, monocyte number. It counts as cell-based. The conditions noted are these: for number of PU1+ Mos, dose response: HTRA1-activated co-cultures, dose dependently. An excerpt:
In accordance with the Declaration of Helsinki, volunteers provided written and informed consent for the human monocyte expression studies, which were approved by the Centre national d'ophthalmologic des Quinze-Vinet hospital (Paris, France) ethics committees (no. 913572). PBMCs were isolated from heparinized venous blood from healthy volunteer individuals by 1-step centrifugation on a Ficoll Paque layer (GE Healthcare) and sorted with EasySep Human Monocyte Enrichment Cocktail without CD16 Depletion Kit (StemCells Technology). Mouse peritoneal macrophages, bone marrow-derived monocytes and photoreceptor outer segment (POS) isolation (all in serum-free X-Vivo 15 medium) were performed as previously described (Sennlaub et al, EMBO Mol Med. 2013, 5:1775-1793). For co-culture experiments the mononuclear monocytes were either stained using CellTrace™ CFSE (Life Technologies®) and then washed three times or they were identified by PU1 immunohistochemistry, a MP-specific transcription factor not expressed in RPE.
(§1) Fresh pig eyes were obtained from the slaughter house 2-3 hours after enucleation. They were cleaned of surrounding tissue and immersed briefly in antiseptic solution (Pursept®). The anterior part of the eye was removed, as the lens, vitreous and vitreous. The posterior segments were washed 2 times with PBS (Phosphate Buffered Saline) and then incubated at 37° C. in the presence of 0.25% trypsin, to detach the RPE cells. After 1 h incubation, the trypsin solution was removed and the cells recovered in Dulbecco's Modified Eagle's Medium (DMEM) supplemented with 20% fetal calf serum (FCS) decomplemented and in the presence of antibiotics (1% penicillin/Streptomycin). The cells were washed several times and then incubated at 37° C. in culture dishes. Three days after the culturing, these cells were again incubated with by 0.25% trypsin, washed, and seeded into 48 wells culture plates (Grenier®) at a density of 150,000 cells/culture well (300,000 cells/[…] or 500 μL/well). Cell confluence was obtained after 4 days of incubation at 37° C. with optimum cell characteristics (squamous cells, well pigmented). To avoid the aging of these primary cell cultures, all the experiments were conducted between the 5th and 7th day after seeding the culture plates.
The culture medium of RPE cells was changed the day before the co-culture with DMEM without FCS (DMEM+1% Penicillin/Streptomycin only). Monocytes were plated onto the wells in the presence or absence of RPE cells at a concentration of 200,000 cells/culture well in a 48-well plate.
Part of co-culture well was brought into contact with 1 ng/ml of Lipopolysaccharide (LPS) from E. coli or recombinant HTRA1 (R & D, 5 μg/ml), to simulate a systemic inflammatory activation (LPS) or microenvironment similar to AMD (increase HTRA1) (see above). […]
RPE cells were permeabilized, after washing PAF 4%, with a solution of PBS-0.1% Triton-Citrate 0.1%. Nonspecific immunogenic sites were blocked with PBS-0.1% Triton-5% horse serum. After 1 hour, the blocking solution was removed and the cells were placed in presence of the with the primary antibodies (polyclonal rabbit anti-human PU.1, 1/200, LifeTechnologies; polyclonal goat anti-human OTX2, 1/500, R&D) diluted in PBS triton 0.1% and 1% horse serum and incubated at 4° C. for 12 h. After three washes with PBS, the secondary antibody coupled to a fluorochrome and diluted in PBS-0.1% Triton-1% horse serum was added along with DAPI (nuclear staining) and left for 1 hour at temperature ambient and then washed several times with PBS.
25 fields per well were analyzed Arrayscan® then the number of cells for each culture condition was counted directly by a computer protocol. All nuclei were labeled with DAPI, monocytes were marked in green 488 nm (CellTrace™ CFSE) or and RPE cells in far red 647 nm (recognition of anti-OTX2 primary antibody). […]

Series [2] has as its system recruited monocyte-derived inflammatory macrophages (recMφ). The series can be described thus: Thioglycollate-induced peritonitis. It counts as in vivo, mouse. The conditions noted are these: single intra-peritoneal injection at day 1, observed at day 2. As to the method: Mouse peritoneal exudate cells (PECs) were elicited by i.p. injection of 0,5 ml 3% thioglycollate (T9032, Sigma) into 10 weeks old male C57BL/6J and Cd47^−/− mice. After 1 day, PECs were isolated by flushing of the peritoneum with ice-cold PBS, Mφs were negatively selected by magnetic sorting following the manufacturers protocol (EasySep Mouse Monocyte Enrichment Kit, Stemcell Technologies), resuspended in X-VIVO 15 medium (Lonza), and plated in Lab-Tek® Chamber Slide™ (Nunc®).
To test whether CD47 influences inflammation resolution in other pathological contexts, a model of acute thioglycollate-induced peritonitis was used, characterized by an early accumulation of neutrophils, followed by recruited monocyte-derived inflammatory macrophages (recMφ), both experiencing an apoptosis-driven elimination at different kinetics (Gautier et al., Blood. 2013, 122:2714-2722).

The subject of series [3] is porcine RPE. Description: Monocyte/RPE co-culture, RPE cell number (OTX2+ nuclei). It counts as cell-based. The conditions noted are these: for number/survival of RPE cells in co-culture: HTRA1 5 μg/mL, OTX2 nuclear marker. On the procedure: as §1
The culture medium of RPE cells was changed the day before the co-culture with DMEM without FCS (DMEM+1% Penicillin/Streptomycin only). Monocytes were plated onto the wells in the presence or absence of RPE cells at a concentration of 200,000 cells/culture well in a 48-well plate. […]
25 fields per well were analyzed Arrayscan® then the number of cells for each culture condition was counted directly by a computer protocol. […] For graphs where quantifications from several plates were pooled (FIGS. 4D and E) results were expressed as the percentage of the number of PU.1 or OTX2 positive cells normalized with the HTRA1 treated condition. […]

Series [4] concerns subretinal IBA-1+ MPs. The series can be described thus: Laser-injury model in Cx3cr1GFP/GFP mice. The conditions noted are these: 2 μl intravitreal at day 4 and day 7, day 10, vs PBS or 4NGG. It counts as in vivo, mouse. On the procedure:
(§2) Laser-coagulations were performed with a 532 nm ophtalmological laser mounted on an operating microscope (Vitra Laser, 532 nm, 450 mW, 50 ms, and 250 μm): Intravitreal injections of 2 μl of HTRA1 and/or TSP1 were performed using glass capillaries (Eppendorf) and a micro injector. The 2 μl injection solution contained 50 μg/ml TSP1 and HTRA1, corresponding to an intraocular concentration of 5 μg/ml of each protein assuming their dilution by approximately 1/10th in the intra-ocular volume. […] A volume of 2 μl of a 100 μM solution of either PBS, recombinant TSP1 (10 μg/ml), the 4NGG control peptide or the CD47-activating peptide PKT16 (200 μM) was injected at day 4 (when MP infiltration is maximal) and day 7 after the injury and evaluated subretinal inflammation on flatmounted RPE/choroidal flatmounts at day 10.
(§3) Eyes were enucleated, fixed in 4% PFA 30 minutes and sectioned at the limbus; the cornea and lens were discarded. […] Choroids and retinas were flatmounted and viewed with a fluorescence microscope DM5500B (Leica). IBA-1+ cells were counted on whole RPE/choroidal flatmounts and on the outer segment side of the retina. […]

In series [5] the test system is subretinal IBA-1+ mononuclear monocytes. Description: Laser-induced subretinal inflammation in wildtype- and Tsp1-/- mice. Type of series: in vivo, mouse. The following applies: wildtype mice, intravitreal injection at d3, quantification at d7. On the procedure:
as §2, §3

In series [6] the target is T1, HTRA1 (Homo sapiens, UniProt Q92743).
T1 construct: purchased R & D
T1 sequence (Q92743 23-480): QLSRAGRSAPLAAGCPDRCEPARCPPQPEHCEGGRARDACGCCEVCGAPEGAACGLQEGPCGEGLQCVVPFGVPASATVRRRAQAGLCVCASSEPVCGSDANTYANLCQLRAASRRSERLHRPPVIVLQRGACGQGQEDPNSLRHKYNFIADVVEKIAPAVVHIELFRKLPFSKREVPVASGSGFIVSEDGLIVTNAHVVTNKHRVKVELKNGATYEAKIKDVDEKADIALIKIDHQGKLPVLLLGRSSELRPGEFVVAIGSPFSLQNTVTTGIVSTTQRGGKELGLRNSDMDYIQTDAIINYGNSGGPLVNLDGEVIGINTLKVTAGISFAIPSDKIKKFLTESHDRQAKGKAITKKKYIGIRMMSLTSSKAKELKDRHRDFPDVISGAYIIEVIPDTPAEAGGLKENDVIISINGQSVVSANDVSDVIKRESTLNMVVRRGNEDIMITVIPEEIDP
The series can be described thus: Co-incubation of recombinant TSP1 or TSP2 with recombinant HTRA1 (Coomassie staining, Western blot). Type of series: biochemical. The conditions noted are these: co-incubation at 37° C. for 24 h, Coomassie gel. As to the method:
WB analysis was performed using a monoclonal anti-TSP1 antibody (Abeam), as previously described (Houssier et al., PLoS Med. 2008, 5:e39). RT-PCRs primers were ordered from Taqman, reference: Hs01016151_m1.
Western blot analysis of the proteins confirmed the disappearance of the whole sized TSP1 and the appearance of several smaller bands in the co-incubated condition (FIG. 3A). […] Next the functionality of rTSP1 and HTRA1-digested TSP1 was analyzed in laser-induced subretinal inflammation in vivo. […] Accordingly, associated choroidal neovascularization, measured as the surface covered by CD102^−CNV on choroidal flatmounts at d7, underwent the same differences (FIG. 3D).
A general note: A western blot detects proteins with antibodies after separation by electrophoresis.

Non-standard residues stand in square brackets, D forms with d. Residues, ends and D or L forms follow the SMILES beside them. NMeR = CN[C@@H](CCCNC(=N)N)C(=O)O; Nle = CCCC[C@H](N)C(=O)O

Regarding “4N1K-GGGGGGGG-4N1K (KRFYVVMWKKGGGGGGGGKRFYVVMWKK) [d4N1K]”, the “Mo elimination compared with 4N1K” value in series [1] (HTRA1-activated co-cultures, 0, 4, 20 and 50 μM, 48 h) is recorded as “significantly more effective”.

Turning to `CSCC[C@H](NC(=O)[C@@H](NC(=O)[C@@H](NC(=O)[C@H](Cc1ccc(O)cc1)NC(=O)[C@H](Cc1ccccc1)NC(=O)[C@H](CCCNC(=N)N)NC(=O)[C@H](N)CCCCN)C(C)C)C(C)C)C(=O)N[C@@H](Cc1c[nH]c2ccccc12)C(=O)N[C@@H](CCCCN)C(=O)N[C@H](CCCCN)C(=O)O` [PKHB1, (D)K-R-F-Y-V-V-M-W-K-(D)K], in series [2], the “elimination of recMφs” value is “significantly accelerated the elimination”.

On to `CCCC[C@H](NC(=O)[C@@H](NC(=O)[C@@H](NC(=O)[C@H](Cc1ccc(O)cc1)NC(=O)[C@H](Cc1ccccc1)NC(=O)[C@H](CCCNC(=N)N)N(C)C(=O)[C@H](N)CCCCN)C(C)C)C(C)C)C(=O)N[C@@H](Cc1c[nH]c2ccccc12)C(=O)N[C@@H](CCCCN)C(=O)N[C@H](CCCCN)C(=O)O` [PKT16, (D)K-(NMeR)-F-Y-V-V-Nle-W-K-(D)K] (H-[dK][NMeR]FYVV[Nle]WK[dK]-OH), for which the “number of PU1+ Mos, dose response” value in series [1] (48 h) is recorded as “diminished the number of Mos”. In series [1] (peptide 100 μM added directly, HTRA1 5 μg/mL, 24 h), the “CFSE+ monocytes number in HTRA1 treated co-culture” value is listed as “completely reversed”. Moreover, the “toxicity to RPE cells (number of OTX2+ nuclei)” value in series [3] (HTRA1 treated co-culture with peptide) is given as “No toxicity”. Also, the “elimination of subretinal IBA-1+ MPs adjacent to the laser impact” value in series [4] is “eliminated significantly more efficiently”.

In the case of “KRFYVVMWKK (4N1K peptide) [reference compound]”, in series [1] (48 h), the “number of PU1+ Mos, dose response” value is recorded as “diminished the number of Mos”.

As for “rHTRA1: recombinant HTRA1 (R & D), high-temperature requirement A serine peptidase 1”, the “monocytes survival in co-culture” value in series [1] (HTRA1 5 μg/mL) is “significantly increased”. For the same molecule, in series [1] (HTRA1 5 μg/mL added to co-culture, 24 h), the “hMos number relative to control conditions” value lay within 3 to 4 times. Also, the “effect of HTRA1 on Mo number after heat-inactivation” value in series [1] (heat-inactivated HTRA1 (not shown)) is recorded as “abolished its effect”. The entries for the “number/survival of RPE cells in co-culture” value in series [3] (listed as HTRA1) and in series [3] (listed as Recombinant HTRA1) were “did not influence survival” and “did not diminish significantly”, respectively. The “laser-induced subretinal inflammation in wildtype mice” value in series [5] is “aggravates”.

For the molecule “recombinant TSP2: recombinant TSP2, contains one VVM site, resistant to HTRA1”, in series [6], the “degradation by recombinant HTRA1” value is on record as “no such degradation”.
